Laboratory results published in ChEMBL document CHEMBL4311991, “Design, synthesis, and biological evaluation of 1-substituted -2-aryl imidazoles targeting tubulin polymerization as potential anticancer agents” (Eur J Med Chem, 2019).
Converted amounts (≈) assume the structure as drawn. The source made the active and inactive calls. The calls are words filed in the database; no cut-off is given here.

Legend:
[1] = test system: MDA-MB-468; experiment: Induction of apoptosis in human MDA-MB-468 cells assessed as early apoptotic cells at 100 nM after 24 hrs by Annexin-FITC/propidium iodide staining based flow cytometry (reference value: 0.35 to 1.25%); type: functional
[2] = test system: MDA-MB-231; experiment: Antiproliferative activity against human MDA-MB-231 cells assessed as reduction in cell viability after 72 hrs by MTT assay; type: functional, cell-based; conditions: MDA-MB-231, 72 h
[3] = test system: HUVEC; experiment: Cytotoxicity against HUVEC assessed as reduction in cell viability after 72 hrs by MTT assay; type: cell-based; conditions: Homo sapiens
[4] = test system: MDA-MB-468; experiment: Antitumor activity against human MDA-MB-468 cells xenografted in nude mouse assessed as tumour growth inhibition at 30 mg/kg, ip administered every other day for 21 days relative to control; type: functional; conditions: MDA-MB-468, ip, 504 h, read-out: TGI
[5] = test system: MDA-MB-468; experiment: Induction of apoptosis in human MDA-MB-468 cells assessed as early apoptotic cells at 100 nM after 72 hrs by Annexin-FITC/propidium iodide staining based flow cytometry (reference value: 0.35 to 1.25%); type: functional
[6] = test system: MDA-MB-468; experiment: Induction of apoptosis in human MDA-MB-468 cells assessed as viable cells at 100 nM after 24 hrs by Annexin-FITC/propidium iodide staining based flow cytometry (reference value: 96.8%); type: functional; conditions: MDA-MB-468, 24 h, read-out: Activity
[7] = Toxicity in nude mouse xenografted with human MDA-MB-468 cells assessed as effect on body weight at 30 to 60 mg/kg, ip administered every other day for 21 days; type: organism-based; conditions: in vivo, 504 h
[8] = Retention time of the compound using acetonitrile:water at ratio of 50:50 as mobile phase by reverse-phase HPLC analysis; type: physicochemical; conditions: buffer
[9] = target: T1, Tubulin (Sus scrofa) (UniProt P02554+P02550); experiment: (§1) Inhibition of pig brain tubulin polymerization in presence of GTP by spectrophotometric analysis
[10] = target: Tubulin (Sus scrofa, UniProt P02554+P02550); experiment: as §1
[11] = test system: MDA-MB-468; experiment: Induction of apoptosis in human MDA-MB-468 cells assessed as early apoptotic cells at 100 nM after 48 hrs by Annexin-FITC/propidium iodide staining based flow cytometry (reference value: 0.35 to 1.25%); type: functional
[12] = test system: MDA-MB-468; experiment: Antiproliferative activity against human MDA-MB-468 cells assessed as reduction in cell viability after 72 hrs by MTT assay; type: functional, cell-based; conditions: MDA-MB-468, 72 h
[13] = target: T1, Tubulin (Sus scrofa); experiment: Inhibition of pig brain tubulin polymerization at 3 to 6 uM in presence of GTP by spectrophotometric analysis relative to control
[14] = test system: MDA-MB-468; experiment: Induction of cell cycle arrest in human MDA-MB-468 cells assessed as accumulation of cells at G2/M phase at IC50 concentration by propidium iodide staining-based flow cytometric analysis; type: functional; conditions: TDE = time-dependent effect
[15] = test system: MDA-MB-468; experiment: Induction of apoptosis in human MDA-MB-468 cells assessed as necrotic cells at 100 nM after 48 hrs by Annexin-FITC/propidium iodide staining based flow cytometry (reference value: 0.97 to 1.29%); type: functional
[16] = test system: MDA-MB-468; experiment: Induction of apoptosis in human MDA-MB-468 cells assessed as viable cells at 100 nM after 48 hrs by Annexin-FITC/propidium iodide staining based flow cytometry (reference value: 96.8%); type: functional; conditions: MDA-MB-468, 48 h, read-out: Activity
[17] = 1-Octanol/water partition coefficient, log P of compound at 1 mg after 1 hr by HPLC analysis; type: physicochemical
[18] = test system: T47D; experiment: Antiproliferative activity against human T47D cells assessed as reduction in cell viability after 72 hrs by MTT assay; type: functional, cell-based
[19] = test system: HeLa; experiment: Antiproliferative activity against human HeLa cells assessed as reduction in cell viability after 72 hrs by MTT assay; type: functional, cell-based
[20] = Aqueous solubility of the compound at 1 mg/ml after 24 hrs by shake flask method based HPLC analysis; type: physicochemical
[21] = test system: MDA-MB-468; experiment: Induction of apoptosis in human MDA-MB-468 cells assessed as late apoptotic cells at 100 nM after 24 hrs by Annexin-FITC/propidium iodide staining based flow cytometry (reference value: 1.03 to 1.59%); type: functional
[22] = Ratio of compound aqueous solubility to CA-4 aqueous solubility at 1 mg/ml after 24 hrs by shake flask method based HPLC analysis; type: physicochemical; conditions: buffer
[23] = test system: MDA-MB-468; experiment: Induction of apoptosis in human MDA-MB-468 cells assessed as late apoptotic cells at 100 nM after 72 hrs by Annexin-FITC/propidium iodide staining based flow cytometry (reference value: 1.03 to 1.59%); type: functional
[24] = test system: HCT-15; experiment: Antiproliferative activity against human HCT15 cells assessed as reduction in cell viability after 72 hrs by MTT assay; type: functional, cell-based; conditions: HCT-15, 72 h
[25] = organism: Mus musculus; experiment: Inhibition of tubulin polymerization in mouse B16F10 cells assessed as disruption of microtubule network at 400 nM incubated for 6 hrs by DAPI staining based confocal microscopy; type: cell-based
[26] = test system: MDA-MB-468; experiment: Induction of apoptosis in human MDA-MB-468 cells assessed as necrotic cells at 100 nM after 72 hrs by Annexin-FITC/propidium iodide staining based flow cytometry (reference value: 0.97 to 1.29%); type: functional
[27] = test system: MDA-MB-468; experiment: Induction of apoptosis in human MDA-MB-468 cells assessed as late apoptotic cells at 100 nM after 48 hrs by Annexin-FITC/propidium iodide staining based flow cytometry (reference value: 1.03 to 1.59%); type: functional
[28] = test system: MDA-MB-468; experiment: Antitumor activity against human MDA-MB-468 cells xenografted in nude mouse assessed as tumour growth inhibition at 60 mg/kg, ip administered every other day for 21 days relative to control; type: functional; conditions: MDA-MB-468, ip, 504 h, read-out: TGI
[29] = test system: MDA-MB-468; experiment: Induction of apoptosis in human MDA-MB-468 cells assessed as necrotic cells at 100 nM after 24 hrs by Annexin-FITC/propidium iodide staining based flow cytometry (reference value: 0.97 to 1.29%); type: functional
[30] = test system: MDA-MB-468; experiment: Induction of apoptosis in human MDA-MB-468 cells assessed as viable cells at 100 nM after 72 hrs by Annexin-FITC/propidium iodide staining based flow cytometry (reference value: 96.8%); type: functional; conditions: MDA-MB-468, 72 h, read-out: Activity
[31] = test system: HT-29; experiment: Antiproliferative activity against human HT-29 cells assessed as reduction in cell viability after 72 hrs by MTT assay; type: functional, cell-based; conditions: HT-29, 72 h

T1 sequence (P02550 whole entry, looked up): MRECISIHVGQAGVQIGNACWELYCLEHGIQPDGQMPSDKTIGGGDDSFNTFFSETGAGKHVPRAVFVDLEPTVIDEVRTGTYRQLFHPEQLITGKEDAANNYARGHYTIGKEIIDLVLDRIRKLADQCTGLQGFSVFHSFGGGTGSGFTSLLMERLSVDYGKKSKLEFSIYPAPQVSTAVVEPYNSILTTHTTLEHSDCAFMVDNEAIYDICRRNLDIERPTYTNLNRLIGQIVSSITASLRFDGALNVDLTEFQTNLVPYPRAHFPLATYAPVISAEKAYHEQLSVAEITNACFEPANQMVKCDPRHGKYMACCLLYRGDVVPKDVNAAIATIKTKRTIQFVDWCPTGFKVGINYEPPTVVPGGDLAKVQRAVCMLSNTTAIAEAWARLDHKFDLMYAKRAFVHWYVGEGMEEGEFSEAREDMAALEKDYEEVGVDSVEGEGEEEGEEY
T1 sequence (P02554 whole entry, looked up): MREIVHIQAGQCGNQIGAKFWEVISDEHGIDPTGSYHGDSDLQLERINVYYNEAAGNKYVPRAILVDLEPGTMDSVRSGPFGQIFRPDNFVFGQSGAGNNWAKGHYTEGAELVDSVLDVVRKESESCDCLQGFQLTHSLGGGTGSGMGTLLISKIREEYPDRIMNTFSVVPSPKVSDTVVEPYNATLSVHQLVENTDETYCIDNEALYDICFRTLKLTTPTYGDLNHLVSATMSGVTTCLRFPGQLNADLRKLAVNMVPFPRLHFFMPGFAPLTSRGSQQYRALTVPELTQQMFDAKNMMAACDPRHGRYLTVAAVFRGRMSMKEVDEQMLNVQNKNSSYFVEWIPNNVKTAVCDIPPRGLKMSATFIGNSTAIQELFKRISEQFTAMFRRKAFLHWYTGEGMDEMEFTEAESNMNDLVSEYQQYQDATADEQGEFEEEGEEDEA

COc1ccc(-n2ccnc2-c2cc(OC)c(OC)c(OC)c2)cc1N
Activity [1]: 0.38%
IC50 [2]: 1040 nM
IC50 [3]: 58500 nM
inhibition in vivo at 30 mg/kg [4]: 48%
Activity [5]: 1.53%
viability at 0.1 µM [6]: 94.5%
Activity [7]: Non-Toxic
Retention_time [8]: 5 min
inhibition [9]: Dose-dependent effect
IC50 [10]: 400 nM
Activity [11]: 1.18%
IC50 [12]: 90 nM
inhibition [13]: 100%
Activity [14]: Tde
Activity [15]: 4.19%
viability at 0.1 µM [16]: 79.6%
logP at 1 h [17]: 1.77
IC50 [18]: 500 nM
IC50 [19]: 80 nM
solubility thermodynamic at 24 h [20]: 36.7 µg/mL (≈ 103 µM)
Activity [21]: 3.56%
Ratio [22]: 13
Activity [23]: 22.9%
IC50 [24]: 100 nM
inhibition [25]: Active
Activity [26]: 3.27%
Activity [27]: 15%
inhibition in vivo at 60 mg/kg [28]: 77%
Activity [29]: 1.51%
viability at 0.1 µM [30]: 72.3%
IC50 [31]: 200 nM
